# Values of other authors in US6423677B1, “Cleaner/degreaser concentrate compositions” (Buckeye International, Inc., priority 1995, dated 2002).
# Conditions: in water, ambient temperature
row,SMILES,aqueous ambient temperature solubility [wt. %]
1,CC(O)COc1ccccc1 (centres unmarked) [1-phenoxy-2-propanol],1.1
2,OCCOc1ccccc1 [2-phenoxyethanol],2.3
3,"CCN(CC)c1ccccc1 [N,N-diethylaniline]",1.4
4,c1ccc(N2CCOCC2)cc1 [N-phenylmorpholine],1.0
5,CC(=O)c1ccccc1 [acetophenone],0.5
6,O=Cc1ccccc1 [benzaldehyde],0.3
7,OCc1ccccc1 [benzyl alcohol],4.4
8,O=C1CCCCC1 [cyclohexanone],2.3
9,CCOC(=O)CCCCC(=O)OCC [diethyl adipate],0.43
10,CCOC(=O)CCCC(=O)OCC [diethyl glutarate],0.88
11,CCOC(=O)CC(=O)OCC [diethyl malonate],2.08
12,CC1=CC(=O)CC(C)(C)C1 [isophorone],1.2
13,CC(=O)CC(C)C [methylisobutyl ketone],2.0
14,CCCCCOC(C)=O [n-amyl acetate],0.25
15,CCCCCO [n-amyl alcohol],2.7
16,CCCCOC(C)=O [n-butyl acetate],0.7
17,CC[N+](=O)[O-] [nitroethane],4.5
18,OCCc1ccccc1 [β-phenylethanol],1.6

# Same assay, conditions: in water; solvents not useful in the invention
row,SMILES,aqueous solubility
1,"CC(C)CC(=O)CC(C)C [2,6-dimethyl-4-heptanone]",0.05 wt. %
2,CCCCC(CC)COCCO (centres unmarked) [2-(2-ethylhexoxy)-ethanol],0.095 wt. %
3,CN1CCCC1=O [N-methyl pyrrolidone],infinite
4,CC1COC(=O)O1 (centres unmarked) [propylene carbonate],19.6 wt. %
5,COCC(C)OC(C)=O (centres unmarked) [propylene glycol monomethyl ether acetate],16.5 wt. %
